Legend:
[1] = tested on: HCT116; test: Cytotoxicity, propidium iodide assay, HCT116; format: cell-based; settings: Homo sapiens, HCT-116; Colon, HCT116, 48 hours treatment; read-out: IC50, C4a (HCT116)
Procedure, shortened: (§1)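 IC50 values come from percentage viability curves, with untreated wells set as 100%. Propidium iodide (7 μg/ml) fluorescence was measured after a 48-hour compound exposure and a freeze at −70° C. of at least 24 hours.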

[2] = tested on: A549; test: Cytotoxicity, propidium iodide assay, A549; format: cell-based; settings: Homo sapiens; Lung, A549, 48 hours treatment; read-out: IC50, C1a (A549)
Procedure, shortened: as §1

[3] = tested on: AsPC 1; test: Cytotoxicity, propidium iodide assay, AsPC 1; format: cell-based; settings: Homo sapiens, ASPC1; Pancreatic, AsPC 1, 48 hours treatment; read-out: IC50, C5b (AsPC 1)
Method: The assay was designed as in the reference, Anticancer Drugs, 2002, 13, 1-8, the disclosure of which is incorporated by reference for the teaching of the assay.
Cells from cell lines as mentioned in the table given below were seeded at a density of 3000 cells/well in a white opaque 96-well plate. Following incubation at 37° C./5% CO2 for a period of 18-24 hours, the cells were treated with various concentrations (stock solution was prepared in DMSO and subsequent dilutions were made in media as per ATCC guidelines) of the compounds of Example 1-40 was for a period of 48 hours. At the end of treatment, the spent culture medium was discarded, the cells were washed with 1×PBS and 200 μl of 7 μg/ml propidium iodide was added to each well. The plates were frozen at −70° C. for at least 24 hours. For analysis, the plates were brought to RT, allowed to thaw and were read in PoleStar fluorimeter with the fluorescence setting. The percentage of viable cells in the non-treated set of wells was considered to be 100 and the percentage viability following treatment was calculated accordingly. IC50 values were calculated from graphs plotted using these percentages. Table 4 depicts the IC50 values of compounds of Example 1-40 in individual cell lines.
The abbreviations for the Cell Lines as used in Table 4 are: […]

[4] = tested on: OVCAR 3; test: Cytotoxicity, propidium iodide assay, OVCAR 3; format: cell-based; settings: Homo sapiens; Ovarian, OVCAR 3, 48 hours treatment; read-out: IC50, C3b (OVCAR 3)
Procedure, shortened: as §1

[5] = tested on: TNF-α; test: Human monocyte assay, LPS-stimulated TNF-α (ELISA); format: cell-based; settings: human monocytes, 1 μg/ml LPS, 5 hours, read-out: TNFα (IC50)
Method: The assay was designed as in the reference, Physiol. Res., 2003, 52, 593-598, the disclosure of which is incorporated by reference for the teaching of the assay.
Peripheral blood mononuclear cells (hPBMC) were harvested from human blood and suspended in RPMI 1640 culture medium containing 10% FCS, 100 U/mL penicillin and […] streptomycin (assay medium). Monocytes in the hPBMCs were counted using a Coulter Counter following which the cells were resuspended at 2×10^5 monocytes/mL. A cell suspension containing 2×10^4 monocytes was aliquoted per well of a 96-well plate. Subsequently, the hPBMCs were incubated for 4-5 hours at 37° C. under 5% CO2 (During the incubation, the monocytes adhered to the bottom of 96-well plastic culture plate). Following the incubation, the non-adherent lymphocytes were washed with assay medium and the adherent monocytes re-fed with assay medium. After a 48-hour incubation period (37° C., 5% CO2), monocytes were pretreated with various concentrations of compounds of Example 1-40 (prepared in DMSO) or vehicle (0.5% DMSO) for 30 minutes and stimulated with 1 μg/ml LPS (Escherchia coli 0111:B4, Sigma Chemical Co., St. Louis, Mo.). The incubation was continued for 5 hours at 37° C., 5% CO2. Supernatants were harvested, assayed for IL-6 and TNF-α by ELISA as described by the manufacturer (BD Biosciences, USA). Dexamethasone (10 μM) was used as standard for this assay. The 50% inhibitory concentration (IC50) values were calculated by a nonlinear regression method. In all experiments, a parallel plate was run to ascertain the toxicity of compounds of Example 1-40. The toxicity was determined using the MTS assay as described in Am. J. Physiol. Cell Physiol., 2003, 285, C813-C822.

[6] = tested on: colorectal cancer (cell line HCT116) tumor model; test: In vivo efficacy, HCT116 xenograft model in SCID mice; settings: 50 mpk oral, every day for 14 days
Method: In-vivo efficacy of the compounds of the present invention was tested in colorectal cancer (cell line HCT116) tumor model Animals were housed and cared for in accordance with the Guidelines in force published by CPCSEA (Committee for the Purpose of Control and Supervision of Experiments on Animals), Tamil Nadu, India. Procedures using laboratory animals were approved by the IAEC (Institutional Animal Ethics Committee) of the Research Center of Piramal Life Sciences Limited, Mumbai, India.
Compound storage: All the compounds including standard were stored at 4-8° C. in an amber colored bottle. The compounds in solutions were also maintained at 4-8° C. in a refrigerator. Sample for animal injection was made fresh everyday.
Dose preparation: Required compound was weighed and mixed with 0.5% (w/v) carboxymethyl cellulose (CMC) and triturated with Tween-20 (secundum artum) with gradual addition of water to make up the final concentration.
Efficacy study in SCID mice: Severely Combined Immune-Deficient (SCID strain-CBySmn.CB17-Prkdc^scid/J, The Jackson Laboratory, Stock #001803) male mice weighing about 20 g of 6-9 weeks old were used in the study.
HCT116 cells were grown in McCoy's 5A medium containing 10% fetal calf serum in 5% CO2 incubator at 37° C. Cells were pelleted by centrifugation at 1000-rpm for 10 minutes. Cells were resuspended in sterile 1×PBS to get a count of 25×10^6 cells per mL, 0.2 mL of this cell suspension (corresponding to 5×10^6 cells) was injected by subcutaneous (s.c.) route in SCID mice. Mice were observed every alternate day for palpable tumor mass. Once the tumor size reached a size of 5-7 mm in diameter, animals were randomized into respective treatment groups. Dose was administered every day for 14 days. Tumor size was recorded on every second day.
Tumor weight (mg) was estimated according to the formula for a prolate ellipsoid: {Length (mm)×[width (mm)^2]×0.5}assuming specific gravity to be one and π to be three.
Tumor growth in compound treated animals was calculated as T/C (Treated/Control)×100% and Growth inhibition Percent (GI %) was [100−T/C %]. […]

[7] = tested on: U 373; test: Cytotoxicity, propidium iodide assay, U 373; format: cell-based; settings: Homo sapiens, U373 MG; Glioblastoma, U 373, 48 hours treatment; read-out: IC50, C7a (U 373)
Procedure, shortened: as §1

C/C=C/C(=O)n1c(=O)n(-c2ccc(C(C)(C)C#N)cc2)c2c3cc(Br)ccc3ncc21 [Example 27, (E)-2-(4-(8-Bromo-3-but-2-enoyl-2-oxo-2,3-dihydro-1H-imidazo[4,5-c]quinolin-1-yl)phenyl)-2-methylpropanenitrile]
IC50 [1]: 1000 to 3000 nM
IC50 [2]: ≤ 1000 nM
IC50 [3]: ≤ 1000 nM
IC50 [4]: ≤ 1000 nM
IC50 [5]: ≤ 1000 nM
% growth inhibition on 14th day [6]: 36%

C/C=C/C(=O)n1c(=O)n(-c2ccc(C(C)(C)C#N)cc2)c2c3cc(Cl)ccc3ncc21 [Example 38, (E)-2-(4-(3-But-2-enoyl-8-chloro-2-oxo-2,3-dihydro-1H-imidazo[4,5-c]quinolin-1-yl)phenyl)-2-methylpropanenitrile]
IC50 [1]: > 3000 nM
IC50 [2]: ≤ 1000 nM
IC50 [3]: ≤ 1000 nM
IC50 [4]: ≤ 1000 nM
IC50 [5]: ≤ 1000 nM
% growth inhibition on 14th day [6]: 17%

CC(C)(C#N)c1ccc(-n2c(=O)n(C(=O)c3ccccc3)c3cnc4ccc(Cl)cc4c32)cc1 [Example 37, 2-(4-(3-Benzoyl-8-chloro-2-oxo-2,3-dihydro-1H-imidazo[4,5-c]quinolin-1-yl)phenyl)-2-methylpropanenitrile]
IC50 [1]: > 3000 nM
IC50 [2]: 1000 to 3000 nM
IC50 [7]: > 3000 nM
IC50 [4]: 1000 to 3000 nM
IC50 [5]: ≤ 1000 nM

Cc1cccc(S(=O)(=O)n2c(=O)n(-c3ccc(C(C)(C)C#N)cc3)c3c4cc(Br)ccc4ncc32)c1 [Example 3, 2-(4-(8-Bromo-2-oxo-3-(m-tolylsulfonyl)-2,3-dihydro-1H-imidazo[4,5-c]quinolin-1-yl)phenyl)-2-methylpropanenitrile]
IC50 [1]: 1000 to 3000 nM
IC50 [2]: 1000 to 3000 nM
IC50 [3]: 1000 to 3000 nM
IC50 [7]: > 3000 nM
IC50 [4]: 1000 to 3000 nM

CC(C)(C#N)c1ccc(-n2c(=O)n(C(=O)c3ccccc3)c3cnc4ccc(Br)cc4c32)cc1 [Example 30, 2-(4-(3-Benzoyl-8-bromo-2-oxo-2,3-dihydro-1H-imidazo[4,5-c]quinolin-1-yl)phenyl)-2-methylpropanenitrile]
IC50 [1]: ≤ 1000 nM
IC50 [2]: 1000 to 3000 nM
IC50 [3]: 1000 to 3000 nM
IC50 [7]: ≤ 1000 nM
IC50 [4]: ≤ 1000 nM
IC50 [5]: ≤ 1000 nM
% growth inhibition on 14th day [6]: 35%
